In assay [1] the test system is phospho-akt (Thr308) in PC-3 cells. Kind of assay: Inhibition of phospho-akt (Thr308) in PC-3 cells, MSD phospho-akt 308 ELISA kit. The class given is cell-based. Conditions: Homo sapiens, 2 hours, no serum, read-out: EC50. An outline of the steps: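 Electrochemiluminescent MSD ELISA of Thr308-phosphorylated Akt after a 2 h serum-free compound exposure of PC-3 cells (15,000/well, plated overnight). Controls: DMSO (high), 5 μM wortmannin (low). Lysate binding overnight at 4 °C; detection antibody 1 h at room temperature.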

In a further assay the target is PDK1 (Homo sapiens (Human), UniProt O15530). Description: PDK1 kinase assay (coupled PDK1/AKT/FAM-crosstide assay, IMAP fluorescence polarization). Format: biochemical. In short, it runs like this:
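Coupled cascade: 0.75 nM PDK1 (51-359) → 10 nM AKT2 (140-467-PIFtide) → 100 nM FAM-crosstide. ATP 40 μM, 25° C, 30 min. IMAP FP (ex 485/em 530), 2 h binding. ΔmP vs conc, 4-param fit.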
(In general: Polarisation of emitted light reports the rotation of a fluorescent probe.)

Setting [2] is: PC-3, 2 h, inhibition of P308 Akt in PC-3 cells, MSD.
Where [3] appears, read: inhibition of phospo-PDK1 in vitro.
[4] abbreviates: inhibition of P308 Akt in PC-3 cells, MSD.
[5] abbreviates: inhibition of P308 Akt in PC-3 cells using MSD.

Structures can show the parent of a compound that is named as a salt. Where two headings read alike, the source gives them in different places.

In patent US10030016B2 (Sunesis Pharmaceuticals, Inc., priority 2009, dated 2018) one finds EC50 and IC50 data, which are given here for 26 compounds.

PDK1, sequence (O15530 51-359): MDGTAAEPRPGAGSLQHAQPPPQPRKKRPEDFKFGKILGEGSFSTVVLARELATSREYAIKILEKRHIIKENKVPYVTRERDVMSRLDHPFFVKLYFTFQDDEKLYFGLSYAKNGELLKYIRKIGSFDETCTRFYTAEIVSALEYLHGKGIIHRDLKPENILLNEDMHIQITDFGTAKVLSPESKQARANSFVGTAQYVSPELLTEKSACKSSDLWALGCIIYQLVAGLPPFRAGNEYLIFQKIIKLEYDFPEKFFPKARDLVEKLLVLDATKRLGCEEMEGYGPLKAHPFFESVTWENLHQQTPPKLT

As usually defined, the EC50 is the concentration at which the effect is half-maximal. For orientation: IC50 means the concentration that gives 50% inhibition. High values mean weaker potency in that assay, low ones greater potency in that assay. `Nc1ncnc2ccc(-c3ccc(CNc4ncc(NC(=O)C5CCCC5)cc4C(=O)NCc4ccc(F)c(F)c4)s3)cc12` [Example 8.5.5, 2-({[5-(4-aminoquinazolin-6-yl)thiophen-2-yl]methyl}amino)-5-[(cyclopentylcarbonyl)amino]-N-(3,4-difluorobenzyl) pyridine-3-carboxamide]: the half-maximal effective concentration (EC50) in assay [1] (setting [2]) was 1000 to 10000 nM. The IC50 against PDK1 (setting [3]) lay within 100 to 1000 nM.
As to `CCOC(=O)Nc1n[nH]c2ncc(-c3ccc(CNc4ncc(C#N)nc4C(=O)N[C@@H](C)c4ccc(F)c(F)c4)cc3)cc12` [Example 36, (S)-ethyl 5-(4-((5-cyano-3-(1-(3,4-difluorophenyl)ethylcarbamoyl)pyrazin-2-ylamino)methyl)phenyl)-1H-pyrazolo[3,4-b]pyridin-3-ylcarbamate], the half-maximal effective concentration (EC50) in assay [1] (setting [4]) was less than 1000 nM. At PDK1 (setting [3]), this compound registered an IC50 of less than 100 nM.
As to `N#Cc1cnc(NCc2ccc(-c3ccc4ncnc(N)c4c3)s2)c(C(=O)NCc2ccc(F)c(F)c2)c1` [Ex. 8.8.1, 2-(((5-(4-aminoquinazolin-6-yl)thiophen-2-yl)methyl)amino)-5-cyano-N-(3,4-difluorobenzyl)nicotinamide], in assay [1] (setting [4]), the 50% effective concentration (EC50) was less than 1000 nM. On PDK1 (setting [3]), the IC50 is less than 100 nM.
The matching figures for `C[C@H](NC(=O)c1cn(C)nc1NCc1ccc(-c2ccc3ncnc(N)c3c2)s1)c1ccc(F)cc1` [Example 11.5, 3-({[5-(4-aminoquinazolin-6-yl)thiophen-2-yl]methyl}amino)-N-[(1S)-1-(4-fluorophenyl)ethyl]-1-methyl-1H-pyrazole-4-carboxamide]: 1000 to 10000 nM and less than 100 nM.
The matching figures for `CC(C)Oc1cc(CNc2ncccc2C(=O)NCc2cccc(F)c2)cc(-c2c[nH]c3ncc(C(=O)NC4CC4)cc23)c1` [Example 4.1.4, N-cyclopropyl-3-{3-[({3-[(3-fluorobenzyl)carbamoyl]pyridin-2-yl}amino)methyl]-5-(propan-2-yloxy)phenyl}-1H-pyrrolo [2,3-b]pyridine-5-carboxamide]: 1000 to 10000 nM and less than 100 nM.
The corresponding values for `Cn1cnc2cnc(-c3ccc(CNc4ncccc4C(=O)NCc4ccc(F)c(F)c4)s3)cc21` [Example 8.14.3, N-(3,4-difluorobenzyl)-2-({[5-(1-methyl-1H-imidazo [4,5-c]pyridin-6-yl)thiophen-2-yl]methyl}amino)pyridine-3-carboxamide] are 1000 to 10000 nM and greater than 5000 nM.
`Nc1n[nH]c2ncc(-c3ccc(CNc4ncc(C(F)(F)F)cc4C(=O)N[C@H](CO)c4ccc(Br)cc4)cc3)cc12` [Example 437, (S)-2-(4-(3-amino-1H-pyrazolo[3,4-b]pyridin-5-yl)benzylamino)-N-(1-(4-bromophenyl) 2-hydroxyethyl)-5-(trifluoromethyl)nicotinamide]: the EC50 in assay [1] (setting [5]) is greater than 10000 nM. This compound gave a half-maximal inhibitory concentration (IC50) on PDK1 (inhibition of PDK1 in vitro) of 1000 to 5000 nM.
`C[C@H](NC(=O)c1cccnc1NCc1ccc(-c2ccc3ncnc(NC4COC4)c3c2)s1)c1ccc(F)c(F)c1` [Example 4.35]: the EC50 in assay [1] (setting [4]) lay within 1000 to 10000 nM. This compound showed an IC50 on PDK1 (setting [3]) of less than 100 nM.
In the case of `Nc1ccc(-c2ccc(CNc3ncccc3C(=O)NCc3cncc(F)c3)cc2)cn1` [Example 373, 2-(4-(6-aminopyridin-3-yl)benzylamino)-N-((5-fluoropyridin-3-yl)methyl)nicotinamide], the EC50 in assay [1] (setting [5]) was 1000 to 10000 nM. The same compound gave an IC50 against PDK1 (inhibition of PDK1 in vitro) of 1000 to 5000 nM.
As to `Cn1ccc(NC(=O)c2cc(C(F)(F)F)cnc2NCc2ccc(-c3cnc4[nH]nc(N)c4c3)cc2)n1` [Example 307, 2-(4-(3-amino-1H-pyrazolo [3,4-b]pyridin-5-yl)benzylamino)-N-(1-methyl-1H-pyrazol-3-yl)-5-(trifluoromethyl)nicotinamide], the EC50 in assay [1] (setting [5]) was 1000 to 10000 nM. This compound also had a 50% inhibitory concentration (IC50) at PDK1 (inhibition of PDK1 in vitro) of 1000 to 5000 nM.
The matching figures for `C[C@H](NC(=O)c1cc(C#N)cnc1NCc1ccc(-c2cnc(N)c(C(N)=O)n2)cc1)c1ccc(F)cc1` [Example 217, (S)-3-amino-6-(4-((5-cyano-3-(1-(4-fluorophenyl)ethylcarbamoyl)pyridin-2-ylamino)methyl)phenyl) pyrazine-2-carboxamide]: less than 1000 nM and less than 100 nM.
The corresponding values for `C[C@H](NC(=O)c1cc(C#N)cnc1NCc1ccc(-c2ccc(N)nc2)cc1)c1ccc(F)cc1` [Example 106, (S)-2-(4-(6-aminopyridin-3-yl)benzylamino)-5-cyano-N-(1-(4-fluorophenyl)ethyl) nicotinamide] are less than 1000 nM and less than 100 nM.
The corresponding values for `C[C@H](NC(=O)c1cc(C#N)cnc1NCc1ccc(-c2cnc(N)c(C(=O)NCCN3CCOCC3)c2)cc1)c1ccc(F)cc1` [Example 202, (S)-2-amino-5-(4-((5-cyano-3-(1-(4-fluorophenyl)ethylcarbamoyl)pyridin-2-ylamino)methyl)phenyl)-N-(2-morpholinoethyl) nicotinamide] are 1000 to 10000 nM and less than 100 nM.
Take `Nc1ncnc2ccc(-c3ccc(CNc4ncccc4C(=O)NCc4cccc(F)c4F)s3)cc12` [Example 3.10, 2-({[5-(4-aminoquinazolin-6-yl)thiophen-2-yl]methyl}amino)-N-(2,3-difluorobenzyl)pyridine-3-carboxamide (TFA salt)]: the concentration for a half-maximal effect (EC50) in assay [1] (setting [4]) was 1000 to 10000 nM. The IC50 at PDK1 (setting [3]) was 100 to 1000 nM.
For the compound `CC[C@H](NC(=O)c1cccnc1NCc1ccc(-c2ccc3ncnc(N)c3c2)s1)c1ccc(F)cc1` [Example 3.43, (S)-2-((5-(4-aminoquinazolin-6-yl)thiophen-2-yl)methylamino)-N-(1-(4-fluorophenyl)propyl) nicotinamide (TFA salt)], in assay [1] (setting [4]), the EC50 was 1000 to 10000 nM. In addition, at PDK1 (setting [3]), the IC50 fell in the range of 100 to 1000 nM.
Take `C[C@H](NC(=O)c1cc(C#N)cnc1NCc1ccc(-c2cnc3[nH]c(=O)[nH]c3c2)cc1)c1ccc(F)c(F)c1` [Example 361, (S)-5-cyano-N-(1-(3,4-difluorophenyl)ethyl)-2-(4-(2-oxo-2,3-dihydro-1H-imidazo[4,5-b]pyridin-6-yl)benzylamino) nicotinamide]: the EC50 in assay [1] (setting [5]) is less than 1000 nM. For the same compound, on PDK1 (inhibition of PDK1 in vitro), the IC50 was less than 100 nM.
For `C[C@H](NC(=O)c1nc(C#N)cnc1NCc1ccc(-c2cnc(N)c(N3CCNCC3)n2)cc1)c1ccc(F)c(F)c1` [Example 192, 3-[4-(3′-Amino-3,4,5,6-tetrahydro-2H-[1,2′]bipyrazinyl-6′-yl)-benzylamino]-6-cyano-pyrazine-2-carboxylic acid [(S)-1-(3,4-difluoro-phenyl)-ethyl]-amide], in assay [1] (setting [5]), the concentration giving a half-maximal response (EC50) was 1000 to 10000 nM. For the same compound, the half-maximal inhibitory concentration (IC50) on PDK1 (inhibition of PDK1 in vitro) was less than 100 nM.
The corresponding values for `C[C@H](NC(=O)c1nc(C#N)cnc1NCc1ccc(-c2cn(CCCN(C)C)c3ncnc(N)c23)cc1)c1ccc(F)c(F)c1` [Example 316, (S)-3-(4-(4-amino-7-(3-(dimethylamino)propyl)-7H-pyrrolo[2,3-d]pyrimidin-5-yl)benzylamino)-6-cyano-N-(1-(3,4-difluoro-phenyl)ethyl)pyrazine-2-carboxamide] are 1000 to 10000 nM and less than 100 nM.
`O=C(NCc1ccc(F)c(F)c1)c1cc(C(F)(F)F)cnc1NCc1ccc(-c2cnc3[nH]ncc3c2)cc1` [Example 2.37]: the concentration giving a half-maximal response (EC50) in assay [1] (setting [4]) is less than 1000 nM. The half-maximal inhibitory concentration (IC50) at PDK1 (setting [3]) was less than 100 nM.
As to `Nc1ncnc2ccc(-c3ccc(CNc4nccnc4C(=O)NCc4cccc(F)c4)s3)cc12` [Example 3.73, 3-({[5-(4-aminoquinazolin-6-yl)thiophen-2-yl]methyl}amino)-N-(3-fluorobenzyl) pyrazine-2-carboxamide (TFA salt)], in assay [1] (setting [4]), the EC50 is 1000 to 10000 nM. Moreover, the half-maximal inhibitory concentration (IC50) against PDK1 (setting [3]) was less than 100 nM.
The corresponding values for `C[C@H](NC(=O)c1cccnc1NCc1ccc(-c2cn3ccnc3cn2)s1)c1ccc(F)cc1` [Example 2.8, (S)-N-(1-(4-fluorophenyl)ethyl)-2-(((5-(imidazo[1,2-a]pyrazin-6-yl)thiophen-2-yl)methyl)amino)nicotinamide] are greater than 10000 nM and 1000 to 5000 nM.
For `C[C@H](NC(=O)c1nc(C#N)cnc1NCc1ccc(-c2cnc(N)c(-c3cccc(O)c3)n2)cc1)c1ccc(F)c(F)c1` [Example 235, 3-{4-[5-Amino-6-(3-hydroxy-phenyl)-pyrazin-2-yl]-benzylamino}-6-cyano-pyrazine-2-carboxylic acid [(S)-1-(3,4-difluoro-phenyl)-ethyl]-amide], the EC50 in assay [1] (setting [5]) was 1000 to 10000 nM. Moreover, the concentration for half-maximal inhibition (IC50) on PDK1 (inhibition of PDK1 in vitro) is less than 100 nM.
In the case of `Cc1ccc(F)cc1CNC(=O)c1cccnc1NCc1ccc(-c2ccc3ncnc(N)c3c2)s1` [Example 3.18, 2-({[5-(4-aminoquinazolin-6-yl)thiophen-2-yl]methyl}amino)-N-(5-fluoro-2-methylbenzyl) pyridine-3-carboxamide (TFA salt)], in assay [1] (setting [4]), the EC50 is greater than 10000 nM. Also, on PDK1 (setting [3]), the half-inhibitory concentration (IC50) lay within 100 to 1000 nM.
The matching figures for `C[C@H](NC(=O)c1cnccc1NCc1ccc(-c2ccc3ncnc(N)c3c2)s1)c1ccc(F)c(F)c1` [Example 3.86]: greater than 10000 nM and 1000 to 5000 nM.
The corresponding values for `C[C@H](NC(=O)c1cc(C#N)cnc1N[C@@H](COc1ccc2[nH]c(=O)[nH]c2c1)c1ccccc1)c1ccc(F)cc1` [Example 16.10] are less than 1000 nM and 100 to 1000 nM.
Take `N#Cc1ccc(NC(=O)c2cccnc2NCc2ccc(-c3ccc4ncnc(N)c4c3)s2)cc1` [Example 3.33, 2-({[5-(4-aminoquinazolin-6-yl)thiophen-2-yl]methyl}amino)-N-(4-cyanophenyl)pyridine-3-carboxamide (TFA salt)]: in assay [1] (setting [2]), the EC50 was greater than 10000 nM. For the same compound, the IC50 against PDK1 (setting [3]) was in the range of 100 to 1000 nM.
